Legend:
[1] = viscosity by Brookfield type viscometer or capillary tube viscometer; assay type: physicochemical
Description: The viscosity of the fluorine-containing oil is e.g. at least 5 mPa·s, particularly 10 to 10,000 mPa·s. The viscosity of the fluorine oil (and the HFE) was measured by a Brookfield type viscometer or a capillary tube viscometer.

the skin = experiment: use of the cosmetic applied onto the skin (feeling in use, evaporation of the HFE, skin moisture); assay type: in vivo; conditions: after the cosmetic was applied onto the skin
Description: 50% by weight of a perfluoropolyether (FOMBLIN HC/04 manufactured by Audimont) (viscosity at 25° C.: 70 mPa·s) was mixed with 50% by weight of C4F9OCH3 (HFE A) (viscosity at 25° C.: 0.6 mPa·s) under stirring to give a solution. Thereafter, a very small amount of a perfume was added to give a non-aqueous lotion. This non-aqueous lotion was felt very smooth in use.
The powder ingredients in the formulation shown in Table 2 were mixed and ground with an atomizer and then transferred to a Henschel mixer. Then FOMBLIN HC/04 was added thereto, and the mixture was uniformly mixed. The mixture was dispersed in […] (HFE B) (viscosity at 25° C.: 0.7 mPa·s) to give a solvent dispersion-type foundation. This solvent dispersion-type foundation was felt very smooth in use.
The ingredients (1) to (8) in the formulation shown in Table 3 were mixed and ground in a colloid mill. After this mixture was heated at 80° C., the ingredients (9) to (13) which had been heated and mixed at 80° C. were added thereto and emulsified uniformly in a homomixer. The ingredient (14) was added to this emulsion, further emulsified uniformly in a homomixer, and cooled to room temperature to give a liquid foundation. This liquid foundation was felt very smooth in use. […]

Molecule | viscosity at 25° C. [1] | evaporation of the HFE (the skin)
C4F9OCH3 [HFE A] | 0.6 mPa·s | evaporated rapidly
CCOC(F)(F)C(F)(F)C(F)(F)C(F)(F)F [HFE B, C4F9OC2H5] | 0.7 mPa·s | evaporated rapidly
FC(F)C(F)(F)OCC1(COCC(COC(F)(F)C(F)F)(COC(F)(F)C(F)F)COC(F)(F)C(F)F)COC1 [chemical formula B] | 40 mPa·s | 

— patent publication US20020182240A1, “Cosmetics with hydrofluoroether (HFE)” (Daikin Industries, priority 1997, published 2002)
